Source: patent US10758534B2 (Vertex Pharmaceuticals Incorporated, priority 2014, dated 2020)

molecular target: T1, F508del (Homo sapiens, UniProt P13569, DEL508-508); assay: Protocol 2: FRET membrane potential optical assay (VIPR), identification of correction compounds; assay type: cell-based; settings: Table 3; compounds of Table 1 as modulators of CFTR activity; protocol not stated
T1 construct: expressed in transfected cells
Procedure, shortened: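 Correction of the F508del trafficking defect is scored as forskolin (10 μM)/genistein (20 μM)-stimulated Cl^− efflux in NIH3T3 mouse fibroblasts after a 16 hr, 37° C. compound exposure. Depolarization was followed optically using voltage-sensing FRET dyes.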

T1 sequence (P13569 with tags, fused parts or gaps DEL508-508): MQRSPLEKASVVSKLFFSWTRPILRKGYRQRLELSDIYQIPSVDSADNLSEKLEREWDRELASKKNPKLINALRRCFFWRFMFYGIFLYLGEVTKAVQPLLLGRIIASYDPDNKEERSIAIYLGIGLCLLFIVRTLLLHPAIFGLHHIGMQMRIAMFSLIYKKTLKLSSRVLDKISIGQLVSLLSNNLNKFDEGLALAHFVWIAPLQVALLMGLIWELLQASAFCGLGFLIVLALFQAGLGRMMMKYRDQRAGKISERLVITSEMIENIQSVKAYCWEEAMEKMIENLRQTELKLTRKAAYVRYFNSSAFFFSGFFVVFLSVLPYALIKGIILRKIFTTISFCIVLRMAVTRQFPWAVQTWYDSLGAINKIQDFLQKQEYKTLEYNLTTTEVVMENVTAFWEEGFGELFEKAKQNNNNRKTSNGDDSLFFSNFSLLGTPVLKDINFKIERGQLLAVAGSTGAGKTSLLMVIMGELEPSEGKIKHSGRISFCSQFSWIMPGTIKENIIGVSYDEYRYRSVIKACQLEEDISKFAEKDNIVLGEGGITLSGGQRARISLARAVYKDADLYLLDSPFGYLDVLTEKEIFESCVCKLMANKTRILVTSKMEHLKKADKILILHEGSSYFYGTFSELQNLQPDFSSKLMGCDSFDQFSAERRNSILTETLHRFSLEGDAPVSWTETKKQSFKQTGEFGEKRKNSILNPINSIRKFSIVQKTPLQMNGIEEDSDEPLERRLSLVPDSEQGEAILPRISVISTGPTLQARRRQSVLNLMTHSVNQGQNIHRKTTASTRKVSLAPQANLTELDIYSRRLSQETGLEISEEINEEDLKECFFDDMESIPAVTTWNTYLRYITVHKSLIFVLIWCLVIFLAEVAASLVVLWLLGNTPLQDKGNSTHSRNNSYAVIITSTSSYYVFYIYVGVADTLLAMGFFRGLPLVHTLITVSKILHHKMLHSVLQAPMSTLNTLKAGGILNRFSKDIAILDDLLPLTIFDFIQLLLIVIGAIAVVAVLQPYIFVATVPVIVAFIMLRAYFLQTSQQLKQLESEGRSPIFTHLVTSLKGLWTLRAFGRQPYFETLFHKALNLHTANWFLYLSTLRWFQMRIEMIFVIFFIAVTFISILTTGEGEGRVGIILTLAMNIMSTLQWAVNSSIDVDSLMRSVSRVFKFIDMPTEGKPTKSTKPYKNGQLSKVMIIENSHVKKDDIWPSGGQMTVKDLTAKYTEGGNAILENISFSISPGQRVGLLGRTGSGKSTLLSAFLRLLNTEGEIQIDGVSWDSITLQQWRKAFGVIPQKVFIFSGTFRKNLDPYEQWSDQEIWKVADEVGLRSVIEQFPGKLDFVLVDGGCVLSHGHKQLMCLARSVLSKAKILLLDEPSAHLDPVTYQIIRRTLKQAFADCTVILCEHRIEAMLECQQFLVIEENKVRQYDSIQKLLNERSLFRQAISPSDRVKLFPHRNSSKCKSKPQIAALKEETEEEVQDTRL

SMILES | EC30
CN(c1ccccc1)c1nc(C(C)(C)C)ccc1C(=O)NS(=O)(=O)c1cccc(N)c1 [Compound 85, N-(3-aminophenyl)sulfonyl-6-tert-butyl-2-(N-methylanilino)pyridine-3-carboxamide] | ++ (“++” means between 3 uM and 10 uM)
Cc1cccc(C)c1Cn1nc(C(C)(C)C)cc1C(=O)NS(=O)(=O)c1cccc2[nH]ncc12 [Compound 86, 5-tert-butyl-2-[(2,6-dimethylphenyl)methyl]-N-(1H-indazol-4-ylsulfonyl)pyrazole-3-carboxamide] | ++ (“++” means between 3 uM and 10 uM)
Cc1cccc(C)c1Cn1nc(C(C)(C)C)cc1C(=O)NS(=O)(=O)c1ccccc1N [Compound 88, N-(2-aminophenyl)sulfonyl-5-tert-butyl-2-[(2,6-dimethylphenyl)methyl]pyrazole-3-carboxamide] | +++ (“+++” means <3 uM)
Cc1cc(C)c(CN2Cc3ccccc3C2C(=O)NS(=O)(=O)c2cccc(N)c2)c(C)c1 (stereo not drawn) [Compound 90, N-(3-aminophenyl)sulfonyl-2-[(2,4,6-trimethylphenyl)methyl]isoindoline-1-carboxamide] | +++ (“+++” means <3 uM)
COc1cccnc1S(=O)(=O)NC(=O)c1ccc(C(C)(C)C)nc1Oc1c(C)cc(C)cc1C [Compound 92, 6-tert-butyl-N-[(3-methoxy-2-pyridyl)sulfonyl]-2-(2,4,6-trimethylphenoxy)pyridine-3-carboxamide] | +++ (“+++” means <3 uM)
Cc1cc(C)c(CN2Cc3ccccc3C2C(=O)NS(=O)(=O)c2ccncc2)c(C)c1 (stereo not drawn) [Compound 94, N-(4-pyridylsulfonyl)-2-[(2,4,6-trimethylphenyl)methyl]isoindoline-1-carboxamide] | +++ (“+++” means <3 uM)
Cc1c(Cn2nc(C(C)(C)C)cc2C(=O)NS(=O)(=O)c2ccccc2)cccc1C(F)(F)F [Compound 98, N-(benzenesulfonyl)-5-tert-butyl-2-[[2-methyl-3-(trifluoromethyl)phenyl]methyl]pyrazole-3-carboxamide] | +++ (“+++” means <3 uM)
COc1cccc(Oc2nc(C(C)(C)C)ccc2C(=O)NS(=O)(=O)c2ccccc2)c1 [Compound 101, N-(benzenesulfonyl)-6-tert-butyl-2-(3-methoxyphenoxy)pyridine-3-carboxamide] | +++ (“+++” means <3 uM)
Cc1cc(C)c(Oc2cc(C(C)(C)C)ccc2C(=O)NS(=O)(=O)c2cccc(N)n2)c(C)c1 [Compound 102, N-[(6-amino-2-pyridyl)sulfonyl]-4-tert-butyl-2-(2,4,6-trimethylphenoxy)benzamide] | +++ (“+++” means <3 uM)
Cc1cc(C)c(Cn2nc(C(C)(C)C)cc2C(=O)NS(=O)(=O)c2cccc(N(C)C)c2C)c(C)c1 [Compound 104, 5-tert-butyl-N-[3-(dimethylamino)-2-methyl-phenyl]sulfonyl-2-[(2,4,6-trimethylphenyl)methyl]pyrazole-3-carboxamide] | +++ (“+++” means <3 uM)
Cc1cc(C)c(Oc2ccc(C(C)(C)C)nc2C(=O)NS(=O)(=O)c2cccc(N)c2)c(C)c1 [Compound 106, N-(3-aminophenyl)sulfonyl-6-tert-butyl-3-(2,4,6-trimethylphenoxy)pyridine-2-carboxamide] | +++ (“+++” means <3 uM)
Cc1cccc(C)c1Cn1nc(-c2ccccc2F)cc1C(=O)NS(=O)(=O)c1ccccc1 [Compound 109, N-(benzenesulfonyl)-2-[(2,6-dimethylphenyl)methyl]-5-(2-fluorophenyl)pyrazole-3-carboxamide] | +++ (“+++” means <3 uM)
Cc1cc(C)c(Cn2c(C(=O)NS(=O)(=O)c3ccccc3O)cc3ccccc32)c(C)c1 [Compound 112, N-(2-hydroxyphenyl)sulfonyl-1-[(2,4,6-trimethylphenyl)methyl]indole-2-carboxamide] | +++ (“+++” means <3 uM)
Cc1cc(C)c(Oc2nc(C(C)(C)C)ccc2C(=O)NS(=O)(=O)c2cc[nH]c(=O)c2)c(C)c1 [Compound 113, 6-tert-butyl-N-[(2-oxo-1H-pyridin-4-yl)sulfonyl]-2-(2,4,6-trimethylphenoxy)pyridine-3-carboxamide] | ++ (“++” means between 3 uM and 10 uM)
Cc1cc(C)c(Oc2nc(C(C)(C)C)ccc2C(=O)NS(=O)(=O)c2ccncc2)c(C)c1 [Compound 117, 6-tert-butyl-N-(4-pyridylsulfonyl)-2-(2,4,6-trimethylphenoxy)pyridine-3-carboxamide] | +++ (“+++” means <3 uM)

More lines, now with the values ahead:

EC30 | SMILES
+++ (“+++” means <3 uM) | Cc1cc(C)c(Cn2c(C(=O)NS(=O)(=O)c3ccccc3)cc3c(F)cccc32)c(C)c1 [Compound 87, N-(benzenesulfonyl)-4-fluoro-1-[(2,4,6-trimethylphenyl)methyl]indole-2-carboxamide]
+++ (“+++” means <3 uM) | COc1ncccc1S(=O)(=O)NC(=O)c1ccc(C(C)(C)C)nc1Oc1ccc(C)cc1C [Compound 89, 6-tert-butyl-2-(2,4-dimethylphenoxy)-N-[(2-methoxy-3-pyridyl)sulfonyl]pyridine-3-carboxamide]
++ (“++” means between 3 uM and 10 uM) | Cc1cc(C)c(Oc2nc3ccccc3cc2C(=O)NS(=O)(=O)c2cccc(N)n2)c(C)c1 [Compound 91, N-[(6-amino-2-pyridyl)sulfonyl]-2-(2,4,6-trimethylphenoxy)quinoline-3-carboxamide]
+++ (“+++” means <3 uM) | Cc1cc(C)c(Oc2nc(-c3ccc(F)cc3)ccc2C(=O)NS(=O)(=O)c2cccc(N)n2)c(C)c1 [Compound 93, N-[(6-amino-2-pyridyl)sulfonyl]-6-(4-fluorophenyl)-2-(2,4,6-trimethylphenoxy)pyridine-3-carboxamide]
+++ (“+++” means <3 uM) | Cc1cc(C)c(CN2Cc3cccc(C)c3CC2C(=O)NS(=O)(=O)c2cccc(N)n2)c(C)c1 (stereo not drawn) [Compound 95, N-[(6-amino-2-pyridyl)sulfonyl]-5-methyl-2-[(2,4,6-trimethylphenyl)methyl]-3,4-dihydro-H-isoquinoline-3-carboxamide]
+++ (“+++” means <3 uM) | Cc1cc(C)c(Oc2nc(C(F)(F)F)ccc2C(=O)NS(=O)(=O)c2cccc(N)c2)c(C)c1 [Compound 96, N-(3-aminophenyl)sulfonyl-6-(trifluoromethyl)-2-(2,4,6-trimethylphenoxy)pyridine-3-carboxamide]
+++ (“+++” means <3 uM) | Cc1cc(C)c(Oc2nc(-c3c(C)cccc3C)ccc2C(=O)NS(=O)(=O)c2cccc(N)n2)c(C)c1 [Compound 97, N-[(6-amino-2-pyridyl)sulfonyl]-6-(2,6-dimethylphenyl)-2-(2,4,6-trimethylphenoxy)pyridine-3-carboxamide]
+++ (“+++” means <3 uM) | Cc1cccc(C)c1Cn1nc(-c2ccccc2C#N)cc1C(=O)NS(=O)(=O)c1ccccc1 [Compound 99, N-(benzenesulfonyl)-5-(2-cyanophenyl)-2-[(2,6-dimethylphenyl)methyl]pyrazole-3-carboxamide]
+++ (“+++” means <3 uM) | COc1ccc(OC)c(-c2cc(C(=O)NS(=O)(=O)c3ccccc3)n(Cc3c(C)cccc3C)n2)c1 [Compound 100, N-(benzenesulfonyl)-5-(2,5-dimethoxyphenyl)-2-[(2,6-dimethylphenyl)methyl]pyrazole-3-carboxamide]
+++ (“+++” means <3 uM) | Cc1cc(C)c(CN2Cc3c(C(C)C)cccc3C2C(=O)NS(=O)(=O)c2ccc[nH]c2=O)c(C)c1 (stereo not drawn) [Compound 103, 4-isopropyl-N-[(2-oxo-1H-pyridin-3-yl)sulfonyl]-2-[(2,4,6-trimethylphenyl)methyl]isoindoline-1-carboxamide]
+++ (“+++” means <3 uM) | Cc1cccc(C)c1Cn1nc(C2CCCC2)cc1C(=O)NS(=O)(=O)c1cccc(N)c1 [Compound 105, N-(3-aminophenyl)sulfonyl-5-cyclopentyl-2-[(2,6-dimethylphenyl)methyl]pyrazole-3-carboxamide]
+++ (“+++” means <3 uM) | Cc1cc(C)c(Oc2nc(C(C)(C)C)ccc2C(=O)NS(=O)(=O)c2c[nH]ccc2=O)c(C)c1 [Compound 107, 6-tert-butyl-N-[(4-oxo-1H-pyridin-3-yl)sulfonyl]-2-(2,4,6-trimethylphenoxy)pyridine-3-carboxamide]
+++ (“+++” means <3 uM) | CC(C)(C)c1cc(C(=O)NS(=O)(=O)c2ccccc2)n(Cc2cccc(-n3cccc3)c2)n1 [Compound 108, N-(benzenesulfonyl)-5-tert-butyl-2-[(3-pyrrol-1-ylphenyl)methyl]pyrazole-3-carboxamide]
+++ (“+++” means <3 uM) | Cc1cc(C)c(Cn2nc(C(C)(C)C)cc2C(=O)NS(=O)(=O)c2cccc(N)c2)c(C)c1 [Compound 110, N-(3-aminophenyl)sulfonyl-5-tert-butyl-2-[(2,4,6-trimethylphenyl)methyl]pyrazole-3-carboxamide]
+++ (“+++” means <3 uM) | Cc1cc(C#N)cc(C)c1Oc1nc(C(C)(C)C)ccc1C(=O)NS(=O)(=O)c1cccc(N)c1 [Compound 111, N-(3-aminophenyl)sulfonyl-6-tert-butyl-2-(4-cyano-2,6-dimethyl-phenoxy)pyridine-3-carboxamide]
+++ (“+++” means <3 uM) | CC(C)Oc1ccc(-c2ccc(C(=O)NS(=O)(=O)c3cccc(N)n3)c(N3CCCC(C(C)C)C3)n2)cn1 (stereo not drawn) [Compound 114, N-[(6-amino-2-pyridyl)sulfonyl]-6-(6-isopropoxy-3-pyridyl)-2-(3-isopropyl-1-piperidyl)pyridine-3-carboxamide]
+++ (“+++” means <3 uM) | COc1ccccc1S(=O)(=O)NC(=O)c1ccc(C(C)(C)C)nc1Oc1c(C)cc(C)cc1C [Compound 115, 6-tert-butyl-N-(2-methoxyphenyl)sulfonyl-2-(2,4,6-trimethylphenoxy)pyridine-3-carboxamide]
++ (“++” means between 3 uM and 10 uM) | COc1ccc2cc(C(=O)NS(=O)(=O)c3cccc(N)c3)n(Cc3c(C)cccc3C)c2c1 [Compound 116, N-(3-aminophenyl)sulfonyl-1-[(2,6-dimethylphenyl)methyl]-6-methoxy-indole-2-carboxamide]
